# Measured values published in patent publication US20040005537A1, “Method of identifying toxic agents using differential gene expression” (priority 2000, published 2004).
# Test system: rat heart tissue
# Assay: GENECALLING differential gene expression analysis after dosing of serotonin modulating agents
# Type: in vivo, Sprague Dawley rats
# Protocol: Control animals received sterile water or canola oil. The animals were sacrificed 24 hours following the last dose. Liver tissue was dissected from the animals, and total RNA was recovered from the dissected tissue. cDNA was prepared and the resulting samples were processed through using GENECALLING™ differential expression analysis as described in U.S. Pat. No. 5,871,697 and in Shimkets et al., Nature Biotechnology 17:798-803 (1999). The contents of these patents and publications are incorporated herein by reference in their entirety.
# Thousands of gene fragments were initially found to be differentially expressed in rat heart tissue in response to serotonin modulating agents in. Genes fragments whose expression levels were modulated greater than ±1.5-fold were selected for further analysis.
# Column 6 of Table 1, entitled “Function”, lists the type of classification assigned for the protein, based on its function. The 210 single nucleic acid sequences identified herein, are referred to herein as CARDIOTOX 1-210.
structure (smiles),measurement,setting,value
CNS(=O)(=O)Cc1ccc2[nH]cc(CCN(C)C)c2c1 [sumatriptan],"Effects on Transcription Level: Novel gene fragment, 524 bp, 86% SI to mouse F-box protein FBX6b [AF176526]",CARDIOTOX 1,+1.5 fold
same,"Effects on Transcription Level: Novel gene fragment, 306 bp, 91% SI to mouse low density lipoprotein receptor related protein 4 [AB013874]",CARDIOTOX 2,−1.6 fold
same,"Effects on Transcription Level: Novel gene fragment, 540 bp, 97% SI to mouse skeletal muscle alpha-actin [X03766]",CARDIOTOX 3,+2.4 fold
same,"Effects on Transcription Level: Novel gene fragment, 80 bp",CARDIOTOX 4,−1.4 fold
same,"Effects on Transcription Level: Novel gene fragment, 957 bp, 99% SI to kidney injury associated moleculer HW036 [V80591]",CARDIOTOX 5,−1.6 fold
same,"Effects on Transcription Level: Novel gene fragment, 282 bp, 85% SI to human KIAA1515 protein [AB040948]",CARDIOTOX 6,−1.7 fold
same,"Effects on Transcription Level: Novel gene fragment, 405 bp, 88% SI to human 2-oxoglutarate dehydrogenase [D10523]",CARDIOTOX 7,+1.5 fold
same,Effects on Transcription Level: UCP2,"CARDIOTOX 8, GenBank AB010743",−1.6 fold
same,Effects on Transcription Level: Plasma membrane Ca2 + ATPase-isoform 1,"CARDIOTOX 9, GenBank J03753",−1.6 fold
same,"Effects on Transcription Level: Novel gene fragment, 242 bp, 97% SI to mouse HSP86 heat-shock protein [X16857]",CARDIOTOX 10,+1.4 fold
same,"Effects on Transcription Level: Novel gene fragment, 280 bp, 65% SI to human TRF1-interacting, ankyrin-related ADP-ribose polymerase [AF082556]",CARDIOTOX 11,+1.4 fold
same,"Effects on Transcription Level: Novel gene fragment, 348 bp, 88% SI to mouse Sec61 protein complex gamma subunit [U11027]",CARDIOTOX 12,+1.3 fold
same,"Effects on Transcription Level: Novel gene fragment 553 bp, 93% SI to mouse Sid329 [AB024984]",CARDIOTOX 13,+1.4 fold
same,Effects on Transcription Level: Kruppel-like transcription factor,"CARDIOTOX 14, GenBank AB020759",+1.3 fold
same,Effects on Transcription Level: Ribosomal protein L3,"CARDIOTOX 15, GenBank X62166",+1.4 fold
same,Effects on Transcription Level: Glucose-regulated protein (GRP) 75,"CARDIOTOX 16, GenBank S78556",+1.4 fold
same,Effects on Transcription Level: Immunoglobulin heavy chain binding protein (BiP),"CARDIOTOX 17, GenBank M14050",+1.4 fold
same,Effects on Transcription Level: Membrane-spannining proteoglycan NG2,"CARDIOTOX 18, GenBank X56541",−1.5 fold
same,"Effects on Transcription Level: Novel gene fragment, 1294 bp, 96% SI to mouse Sui 1 (elF) homolog [AF129888]",CARDIOTOX 19,+1.6 fold
same,"Effects on Transcription Level: Novel gene fragment, 723 bp, 85% SI to human translation initiation factor elF3 p40 subunit [U54559]",CARDIOTOX 20,+1.6 fold
same,"Effects on Transcription Level: Novel gene fragment, 1324 bp, 76% SI to human flavoprotein subunit of complex II [D30648]",CARDIOTOX 21,+1.5 fold
same,"Effects on Transcription Level: Novel gene fragment, 852 bp, 81% SI to human vacuolar proton-ATPase subunit M9.2 [Y15286]",CARDIOTOX 22,+1.5 fold
same,"Effects on Transcription Level: Novel gene fragment, 178 bp, 91% SI to mouse myosin light chain-2 isoform MLC-2a [S70785]",CARDIOTOX 23,+1.4 fold
same,"Effects on Transcription Level: Novel gene fragment, 167 bp, 90% SI to mouse Rab20 [X80332]",CARDIOTOX 24,+1.9 fold
same,"Effects on Transcription Level: Novel gene fragment, 1070 bp, 80% SI to human muscle-specific protein [AF249873]",CARDIOTOX 25,+1.5 fold
same,"Effects on Transcription Level: Novel gene fragment, 1143 bp, 82% SI to human sarcoma amplified sequence (SAS) [U01160]",CARDIOTOX 26,+1.7 fold
same,"Effects on Transcription Level: Novel gene fragment, 74 bp,75% SI to human secreted protein [X30160] (from patent database)/[X97578] (from patent database)/potential cytokine)",CARDIOTOX 27,+1.5 fold
same,"Effects on Transcription Level: Novel gene fragment, 408 bp, 90% SI to human CGI-07 protein [AF132941]",CARDIOTOX 28,+1.6 fold
same,"Effects on Transcription Level: Novel gene fragment, 618 bp, 95% SI to rat progression related cDNA, ZNPE-120 3′ end partial sequence [patent database X90805]",CARDIOTOX 29,+1.5 fold
same,"Effects on Transcription Level: Novel gene fragment, 717 bp",CARDIOTOX 30,+1.5 fold
same,"Effects on Transcription Level: Novel gene fragment, 546 bp",CARDIOTOX 31,+1.8 fold
same,"Effects on Transcription Level: Novel gene fragment, 920 bp, 91% SI to human HSPC061 [AF161546]",CARDIOTOX 32,+1.5 fold
same,"Effects on Transcription Level: Novel gene fragment, 203 bp, 92% SI to rabbit sarcoplasmic reticulum glycoprotein [J04480]",CARDIOTOX 33,−1.7 fold
same,"Effects on Transcription Level: Novel gene fragment, 178 bp, 68% SI to mouse IgG receptor (beta-Fc-gamma-RII)[M63159]",CARDIOTOX 34,+1.4 fold
same,Effects on Transcription Level: Ribosomal protein L6,"CARDIOTOX 35, GenBank X87107",+1.6 fold
same,Effects on Transcription Level: CAP2 protein (adenylyl cyclase-associated protein 2),"CARDIOTOX 36, GenBank U31935",+2.0 fold
same,Effects on Transcription Level: Alpha-platelet-derived growth factor receptor,"CARDIOTOX 37, GenBank M63837",+1.6 fold
same,Effects on Transcription Level: Rab GD1 alpha protein,"CARDIOTOX 38, GenBank X74402",−1.6 fold
same,Effects on Transcription Level: PKC-zeta-interacting protein,"CARDIOTOX 39, GenBank Y08355",+1.6 fold
same,Effects on Transcription Level: ERK or MAP kinase,"CARDIOTOX 40, GenBank X65198",+1.5 fold
same,Effects on Transcription Level: Peroxisomal multifunctional enzyme type II,"CARDIOTOX 41, GenBank U37486",+1.5 fold
same,Effects on Transcription Level: HBP23 (heme-binding protein 23 kDa),"CARDIOTOX 42, GenBank D30035",+1.7 fold
same,Effects on Transcription Level: Caveolae-associated protein,"CARDIOTOX 43, GenBank U90725",+3.1 fold
same,Effects on Transcription Level: Prenylated rab acceptor 1 (PRA1),"CARDIOTOX 44, GenBank AF025506",+1.5 fold
same,"Effects on Transcription Level: Novel gene fragment, 337 bp, 88% SI to rabbit cardiac ryanodine receptor (RyR-2)[U50465]",CARDIOTOX 45,−1.5 fold
same,"Effects on Transcription Level: Novel gene fragment, 81 bp, 85% SI to human titin [X90568]",CARDIOTOX 46,−2.2 fold
same,"Effects on Transcription Level: Novel gene fragment, 428 bp, 86% SI to human titin [X90568]",CARDIOTOX 47,−2.0 fold
same,"Effects on Transcription Level: Novel gene fragment, 374 bp, 88% SI to human titin [X90568]",CARDIOTOX 48,−2.3 fold
same,"Effects on Transcription Level: Novel gene fragment, 428 bp, 85% SI to human titin [90568]",CARDIOTOX 49,−2.2 fold
same,"Effects on Transcription Level: Novel gene fragment, 1216 bp, 93% SI to mouse mircotubule-associated protein (MAP) 1B protein [AF115776]",CARDIOTOX 50,1 fold
same,"Effects on Transcription Level: Novel gene fragment, 1115 bp, 83% SI to human KIAA0549 protein [AB011121]",CARDIOTOX 51,−2.1 fold
same,"Effects on Transcription Level: Novel gene fragment, 153 bp",CARDIOTOX 52,−1.7 fold
same,"Effects on Transcription Level: Novel gene fragment, 89 bp, 93% SI to human putative glialblastoma cell differentiation-related protein (GBDR1) [AF068195]",CARDIOTOX 53,+1.6 fold
same,Effects on Transcription Level: Rho-associated kinase beta,"CARDIOTOX 54, GenBank U61266",−1.10 fold
same,Effects on Transcription Level: Adenylate kinase 3,"CARDIOTOX 55, GenBank D13062",+1.5 fold
same,Effects on Transcription Level: Amyloid beta-peptide binding protein,"CARDIOTOX 56, GenBank AF049878",+1.5 fold
same,Effects on Transcription Level: Mitochondrial adenine nuleotide translocator,"CARDIOTOX 57, GenBank D12771",+1.5 fold
same,"Effects on Transcription Level: Novel gene fragment, 710 bp, 94% SI to mouse chromatin structural protein homolog Supt5 hp (Supt5 h)[U88539]",CARDIOTOX 58,+3.0 fold
same,"Effects on Transcription Level: Novel gene fragment, 186 bp, 66% SI to human N-acetylglucosaminyltransferase 1 (GlcNAc-TI)[M55621]",CARDIOTOX 60,−1.8 fold
same,"Effects on Transcription Level: Novel gene fragment, 238 bp, 95% SI to mouse MAP kinase-activated protein kinase 2 [X76850]",CARDIOTOX 61,−2.7 fold
same,"Effects on Transcription Level: Novel gene fragment, 173 bp, 70% SI to G protein-coupled receptor kinase GRK4 [X97568]",CARDIOTOX 62,−6.11 fold
same,"Effects on Transcription Level: Novel gene fragment, 133 bp, 77% SI to human apoptosis related protein hSARP3 [patent database: V19114]",CARDIOTOX 63,−3.2 fold
same,"Effects on Transcription Level: Novel gene fragment, 477 bp, 98% SI to peroxisomal phytanoyl-CoA hydroxylase (PHYH) [AF121345]",CARDIOTOX 64,+5.1 fold
same,"Effects on Transcription Level: Novel gene fragment, 413 bp, 95% SI to mouse dihydrolipoamide dehydrogenase (Dld) [U73445]",CARDIOTOX 65,+1.10 fold
same,"Effects on Transcription Level: Novel gene fragment, 726 bp, 76% SI to human succinate dehydrogenase flavoprotein subunit (SDH) [L21936]",CARDIOTOX 66,−4.1 fold
same,"Effects on Transcription Level: Novel gene fragment, 440 bp, 92% SI to mouse cytochrome c oxidase Vllc [X52940]",CARDIOTOX 67,+3.7 fold
same,"Effects on Transcription Level: Novel gene fragment, 276 bp, 80% SI to human titin [X90568]",CARDIOTOX 68,−11.10 fold
same,"Effects on Transcription Level: Novel gene fragment, 149 bp, 70% SI to human titin [X90568]",CARDIOTOX 69,−5.6 fold
same,"Effects on Transcription Level: Novel gene fragment, 467 bp, 94% SI to mouse gelsolin [J04953]",CARDIOTOX 70,−3.2 fold
same,"Effects on Transcription Level: Novel gene fragment, 535 bp, 90% SI to mouse slow/cardiac troponin C [M29793]",CARDIOTOX 71,−2.1 fold
